The results in this text go back to US7189691B2, “Methods and compositions for treating leukemia” (The Administrators of the Tulane Educational Fund, priority 2004, dated 2007).

Values after ≈ are worked out from the molar mass of the structure shown. “Also recorded” adds a separate entry of the source. Where two headings read alike, the source gives them in different places.

The test system of data set [1] is KP-L-RY leukemia cell line. As to the kind of experiment: MTT viability assay. Type of data set: cell-based. The settings on record: 72 h, differing concentrations. The procedure: All cell lines were maintained in RPMI 1640+10% FCS. 100 μl aliquots of cell suspension (5×10^5 cells/ml) were cultured in flat-bottomed 96 well plates in the presence of different concentrations of peptides. After 72 h incubation at 37° C. in humidified air containing 5% CO2, viable cell number was determined by MTT assay as follows: 10 μl of 3-[4,5-dimethylthiazol-2-yl]-2,5-diphenyl tetrazolium bromide (MTT) (5 mg/ml concentration) (Sigma) was added to each well and incubated further for 6 h. Formazan crystals that are formed during incubation were dissolved in 100 μl of acidified isopropanol. The optical density at 550 nm (which is linearly related to the number of viable cells) was measured using a plate spectrophotometer. Growth characteristics of the leukemia cell lines were also determined for cells by Trypan Blue exclusion.
(In general: Tetrazolium assays rely on reduction of a dye to a coloured formazan, in cell work by metabolically active cells.)

The subject of a further data set is B1 leukemia cells. The data set is described as follows: CaspACE FITC-VAD-FMK caspase assay. Type of data set: cell-based. The note with it: 50 μg peptide, 24 h / overnight. The procedure: To examine an additional marker of apoptosis, apoptosis assays utilizing the FITC-labeled VAD-FMK caspase substrate, CaspACE FITC-VAD-FMK (Promega) were performed according to the manufacturer's instructions. Caspase activation in individual cells was monitored by binding of the caspase substrate, followed by flow cytometry analysis. Briefly, B1 leukemia cells were suspended in RPMI 1640+10% FCS at a concentration of 5×10^5 cells/ml and treated with 50 μg PFWT, PFmut or an equal volume of DMSO. Following an overnight incubation at 37° C., the fluorescent caspase substrate CaspACE FITC-VAD-FMK marker was added to a final concentration of 10 μM and incubated for 20 minutes at 37° C. under light protective conditions. The cells were pelletted, washed, and resuspended in PBS. Cells were then analyzed by flow cytometry using a Becton Dickinson FACS Vantage flow cytometer. A 488 nm wavelength argon-ion laser beam was used for excitation, and the emission was measured using a 530 nm filter.

Data set [2] relates to hematopoietic progenitor cells (peripheral blood stem cells). The data set is described as follows: Methylcellulose clonogenic assay. Type of data set: cell-based, human. The note with it: 100 μg/ml, 72 h incubation; FIG. 4A. The text has this:
PFWT is toxic to several leukemia cell lines raising the possibility that normal hematopoietic cells are also sensitive to the peptide. To verify whether PFWT has any effect on hematopoietic stem cells, standard methylcellulose-based assays were employed to enumerate the colony-forming potential of human peripheral blood and bone marrow stem cells.
Cryopreserved bone marrow and peripheral blood hematopoietic progenitor cells from healthy donors were thawed and diluted with M199 media (Invitrogen) to give a final DMSO concentration of 0.1%. Cells were incubated at room temperature for 2 h for equilibration. Nucleated cells at a concentration of 5×10^5 cells/ml were then incubated with the peptides PFWT or PFmut or DMSO control vehicle for 48 or 72 h. After the incubation period, 400 μl of the cell suspensions were suspended in 3.6 ml MethoCult GF H4434 methylcellulose media containing cytokines (erythropoietin, G-CSF, GM-CSF, stem cell factor, IL-3 and IL-6) (Stem Cell Technologies) and transferred to 25 mm plates with grids. The cells were plated in triplicate and incubated for 2 weeks at 37° C. with 5% CO2 in a humidified incubator. After 2 weeks, the number of colonies (>50 cells) per plate was counted under an inverted light microscope as a measure of progenitor cell viability.

Another data set is described as follows: Solubility. Type of data set: physicochemical. The procedure: PFWT and PFmut are soluble in phosphate buffered saline (PBS) at a concentration of 1 mg/ml and in dimethylsulfoxide (DMSO) at >50 mg/ml (data not shown). In the initial experiments, peptides were dissolved in PBS but were dissolved in DMSO for the majority of the subsequent experiments.
For a further data set, the target named is T1, AF4-AF9 interaction (Homo sapiens, UniProt P42568).
T1 construct: made in house; host or cells: GST-AF4 from E. coli; AF9 by coupled in vitro transcription/translation (Promega)
T1 sequence (P42568 211-568): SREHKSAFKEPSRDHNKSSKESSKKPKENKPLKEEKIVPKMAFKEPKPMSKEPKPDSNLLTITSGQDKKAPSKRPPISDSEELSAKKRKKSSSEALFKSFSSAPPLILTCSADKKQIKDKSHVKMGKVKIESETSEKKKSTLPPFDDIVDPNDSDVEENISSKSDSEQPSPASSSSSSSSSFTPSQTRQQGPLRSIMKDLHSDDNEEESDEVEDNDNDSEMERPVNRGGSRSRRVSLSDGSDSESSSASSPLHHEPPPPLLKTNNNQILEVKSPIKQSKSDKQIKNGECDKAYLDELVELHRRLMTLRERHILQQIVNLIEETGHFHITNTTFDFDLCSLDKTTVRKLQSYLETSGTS
As to the kind of experiment: Enzyme-linked protein binding assay, GST-AF4(749-775) and biotinylated AF9.

Setting [3] is: dimethylsulfoxide (DMSO), read-out: solubility in dimethylsulfoxide (DMSO).
Setting [4] is: phosphate buffered saline (PBS), read-out: solubility in phosphate buffered saline (PBS).

Consider `CC[C@H](C)[C@H](NC(=O)[C@H](CCC(N)=O)NC(=O)[C@@H](N)CCCNC(=N)N)C(=O)N[C@@H](CCCCN)C(=O)N[C@@H](Cc1c[nH]c2ccccc12)C(=O)N[C@@H](Cc1ccccc1)C(=O)N[C@@H](CCC(N)=O)C(=O)N[C@@H](CC(N)=O)C(=O)N[C@@H](CCCNC(=N)N)C(=O)N[C@@H](CCCNC(=N)N)C(=O)N[C@@H](CCSC)C(=O)N[C@@H](CCCCN)C(=O)N[C@@H](Cc1c[nH]c2ccccc12)C(=O)N[C@@H](CCCCN)C(=O)N[C@@H](CCCCN)C(=O)N[C@@H](CC(C)C)C(=O)N[C@@H](Cc1c[nH]c2ccccc12)C(=O)N[C@@H](CCC(=O)O)C(=O)N[C@@H](CCCCN)C(=O)N[C@@H](CO)C(=O)N[C@@H](CC(=O)O)C(=O)N[C@@H](CC(C)C)C(=O)N[C@@H](CC(=O)O)C(=O)N[C@@H](CC(C)C)C(=O)N[C@@H](CC(C)C)C(=O)N[C@@H](CO)C(=O)N[C@@H](CCCNC(=N)N)C(=O)N[C@H](C(=O)N1CCC[C@H]1C(=O)O)C(C)C` [PFmut], for which the cell viability result in data set [1] is “much less sensitive”. Besides, the “caspase activation (fluorescence intensity)” value in the data set on B1 leukemia cells is “little caspase activation can be detected”. The “colony forming potential (colonies >50 cells after 14 days)” value in data set [2] is recorded as “neither PFWT nor PFmut have any significant effect”. Moreover, the solubility in the data set “Solubility” (setting [3]) was more than 50 mg/mL; in “Solubility” (setting [4]), 1 mg/mL (≈ 264 µM). Further, the “concentration at which activity plateaus” value at AF4-AF9 interaction came to 40 µg/mL.
Consider `CC[C@H](C)[C@H](NC(=O)[C@H](CCCCN)NC(=O)[C@@H](NC(=O)[C@H](Cc1c[nH]c2ccccc12)NC(=O)[C@H](CC(C)C)NC(=O)[C@H](CCCCN)NC(=O)[C@H](CCCCN)NC(=O)[C@H](Cc1c[nH]c2ccccc12)NC(=O)[C@H](CCCCN)NC(=O)[C@H](CCSC)NC(=O)[C@H](CCCNC(=N)N)NC(=O)[C@H](CCCNC(=N)N)NC(=O)[C@H](CC(N)=O)NC(=O)[C@H](CCC(N)=O)NC(=O)[C@H](Cc1ccccc1)NC(=O)[C@H](Cc1c[nH]c2ccccc12)NC(=O)[C@H](CCCCN)NC(=O)[C@@H](NC(=O)[C@H](CCC(N)=O)NC(=O)[C@@H](N)CCCNC(=N)N)[C@@H](C)CC)C(C)C)C(=O)N[C@@H](CC(=O)O)C(=O)N[C@@H](CC(C)C)C(=O)N[C@@H](CC(=O)O)C(=O)N[C@@H](CC(C)C)C(=O)N[C@@H](CC(C)C)C(=O)N[C@@H](CO)C(=O)N[C@@H](CCCNC(=N)N)C(=O)N[C@H](C(=O)N1CCC[C@H]1C(=O)O)C(C)C` [PFWT], for which, in data set [1], the cell viability result is “diminished; also recorded: inhibits”. Further, in the data set on B1 leukemia cells, the “caspase activation (fluorescence intensity)” value was “caspases are activated”. Besides, in data set [2], the “colony forming potential (colonies >50 cells after 14 days)” value was “neither PFWT nor PFmut have any significant effect; also recorded: does not impair their colony forming potential”. Moreover, the solubility in “Solubility” (setting [3]) is more than 50 mg/mL. Moreover, the solubility in “Solubility” (setting [4]) was found to be 1 mg/mL (≈ 264 µM). The AF4-AF9 interaction entry on AF4-AF9 interaction (10 μg/ml, FIG. 2B) was “abolished”. Besides, on AF4-AF9 interaction (FIG. 2B), the “concentration dependence of AF4-AF9 interaction” value is given as “dose dependent reduction; also recorded: displaces AF9 from AF4 in a concentration-dependant fashion” and the “lowest concentration showing activity” value was 10 ng/mL.

One may read the solubility as how much of the substance goes into solution per volume.
